According to PubChem BioAssay (NCI):
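GI50 is the concentration that inhibits growth by half. TGI denotes the concentration required for complete inhibition of growth.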

Experiments:
Assay in all cases: NCI-60 cell line screen, 384-well format
[1] = tested on: OVCAR-5 ovarian
[2] = tested on: TK-10 renal
[3] = tested on: SF-268 CNS
[4] = tested on: HOP-92 NSCLC
[5] = tested on: K-562 leukemia
[6] = tested on: SW-620 colon
[7] = tested on: MDA-MB-468 breast
[8] = tested on: NCI-H460 NSCLC
[9] = tested on: COLO 205 colon
[10] = tested on: SR leukemia
[11] = tested on: MDA-MB-435 melanoma
[12] = tested on: UACC-257 melanoma
[13] = tested on: SK-MEL-28 melanoma
[14] = tested on: SK-MEL-5 melanoma
[15] = tested on: M14 melanoma
[16] = tested on: LOX IMVI melanoma
[17] = tested on: NCI/ADR-RES ovarian
[18] = tested on: CCRF-CEM leukemia
[19] = tested on: MDA-MB-231 breast
[20] = tested on: PC-3 prostate
[21] = tested on: KM12 colon
[22] = tested on: RXF 393 renal
[23] = tested on: OVCAR-3 ovarian
[24] = tested on: HCT-15 colon
[25] = tested on: SF-295 CNS
[26] = tested on: SNB-19 CNS
[27] = tested on: A549 NSCLC
[28] = tested on: SK-MEL-2 melanoma
[29] = tested on: HL-60(TB) leukemia
[30] = tested on: NCI-H522 lung
[31] = tested on: SN12C renal
[32] = tested on: SK-OV-3 ovarian
[33] = tested on: SF-539 CNS
[34] = tested on: HT29 colon
[35] = tested on: OVCAR-8 ovarian
[36] = tested on: HCC-2998 colon
[37] = tested on: BT-549 breast
[38] = tested on: ACHN renal
[39] = tested on: RPMI-8226 leukemia
[40] = tested on: UACC-62 melanoma
[41] = tested on: T-47D breast
[42] = tested on: OVCAR-4 ovarian
[43] = tested on: CAKI-1 renal
[44] = tested on: A498 renal
[45] = tested on: NCI-H322M lung
[46] = tested on: IGROV1 ovarian
[47] = tested on: MOLT-4 leukemia
[48] = tested on: MALME-3M melanoma
[49] = tested on: U251 glioblastoma
[50] = tested on: 786-0 renal
[51] = tested on: NCI-H23 lung
[52] = tested on: NCI-H226 lung
[53] = tested on: UO-31 renal
[54] = tested on: HOP-62 NSCLC

Molecule CN(C)C/C=C/C(=O)Nc1ccc(C(=O)N[C@@]2(C)CCC[C@@H](Nc3ncc(Cl)c(-c4c[nH]c5ccccc45)n3)C2)nc1 has a GI50 [1] of less than 10 nM, a TGI [1] of 1310 nM and a GI50 [2] of 16.7 nM. The TGI [2] was 101 nM, the GI50 [3] was less than 10 nM and the TGI [3] was 16.2 nM. It also gave a GI50 [4] of less than 10 nM, a TGI [4] of 136 nM and a GI50 [5] of less than 10 nM. It also gave a TGI [5] of 43.5 nM, a GI50 [6] of less than 10 nM and a TGI [6] of 22.9 nM. It also gave a GI50 [7] of less than 10 nM, a TGI [7] of less than 10 nM and a GI50 [8] of less than 10 nM. It also gave a TGI [8] of less than 10 nM, a GI50 [9] of less than 10 nM and a TGI [9] of less than 10 nM. It also gave a GI50 [10] of less than 10 nM, a TGI [10] of less than 10 nM and a GI50 [11] of less than 10 nM. It also gave a TGI [11] of 15.7 nM, a GI50 [12] of less than 10 nM and a TGI [12] of 15.4 nM. For the same molecule, the GI50 [13] was less than 10 nM, the TGI [13] was less than 10 nM and the GI50 [14] was less than 10 nM. It also gave a TGI [14] of 13.3 nM, a GI50 [15] of less than 10 nM and a TGI [15] of 13.7 nM. The GI50 [16] was less than 10 nM, the TGI [16] was less than 10 nM and the GI50 [17] was 202 nM. For the same molecule, the TGI [17] was 1090 nM, the GI50 [18] was less than 10 nM and the TGI [18] was less than 10 nM. For the same molecule, the GI50 [19] was less than 10 nM, the TGI [19] was 115 nM and the GI50 [20] was less than 10 nM. For the same molecule, the TGI [20] was 44.4 nM, the GI50 [21] was less than 10 nM and the TGI [21] was 10.8 nM. It also gave a GI50 [22] of less than 10 nM, a TGI [22] of less than 10 nM and a GI50 [23] of less than 10 nM. For the same molecule, the TGI [23] was 12.9 nM, the GI50 [24] was less than 10 nM and the TGI [24] was 64.6 nM. It also gave a GI50 [25] of less than 10 nM, a TGI [25] of 67.5 nM and a GI50 [26] of less than 10 nM. For the same molecule, the TGI [26] was 1340 nM, the GI50 [27] was less than 10 nM and the TGI [27] was 116 nM. It also gave a GI50 [28] of less than 10 nM, a TGI [28] of 10.9 nM and a GI50 [29] of less than 10 nM. The TGI [29] was less than 10 nM, the GI50 [30] was less than 10 nM and the TGI [30] was less than 10 nM. It also gave a GI50 [31] of less than 10 nM, a TGI [31] of 17.2 nM and a GI50 [32] of less than 10 nM. It also gave a TGI [32] of 85.4 nM, a GI50 [33] of less than 10 nM and a TGI [33] of 20.4 nM. For the same molecule, the GI50 [34] was less than 10 nM, the TGI [34] was 72.2 nM and the GI50 [35] was less than 10 nM. It also gave a TGI [35] of 27.8 nM, a GI50 [36] of less than 10 nM and a TGI [36] of 15.8 nM. For the same molecule, the GI50 [37] was less than 10 nM, the TGI [37] was less than 10 nM and the GI50 [38] was less than 10 nM. The TGI [38] was 88.6 nM, the GI50 [39] was less than 10 nM and the TGI [39] was less than 10 nM. It also gave a GI50 [40] of less than 10 nM, a TGI [40] of less than 10 nM and a GI50 [41] of 15.6 nM. The TGI [41] was 144 nM, the GI50 [42] was less than 10 nM and the TGI [42] was 35.9 nM. The GI50 [43] was less than 10 nM, the TGI [43] was 103 nM and the GI50 [44] was less than 10 nM. The TGI [44] was 15.2 nM, the GI50 [45] was less than 10 nM and the TGI [45] was 41.3 nM. The GI50 [46] was less than 10 nM, the TGI [46] was 127 nM and the GI50 [47] was less than 10 nM. It also gave a TGI [47] of less than 10 nM, a GI50 [48] of 12.5 nM and a TGI [48] of 26.3 nM. It also gave a GI50 [49] of less than 10 nM, a TGI [49] of 30.2 nM and a GI50 [50] of less than 10 nM. It also gave a TGI [50] of 26.2 nM, a GI50 [51] of less than 10 nM and a TGI [51] of 14.4 nM. It also gave a GI50 [52] of less than 10 nM, a TGI [52] of 34.1 nM and a GI50 [53] of 14 nM. The TGI [53] was 42 nM, the GI50 [54] was less than 10 nM and the TGI [54] was less than 10 nM.
